Reference: US20240390369A1, “METHODS FOR DETERMINING RESPONSIVENESS TO TYK2 INHIBITORS” (Bristol-Myers Squibb Company, priority 2021, published 2024)
“And” between values parts separate entries of the source, which are not always exact repeats. Equal values may be shown once.

Tested on: patients with psoriatic arthritis
Assay: Phase 2 trial in psoriatic arthritis: PASI75 response at week 16
Type: in vivo, human
Settings: for Interaction Term for PASI75 response (ratio of odds ratios): week 16; for PASI75 response rate over time: placebo, sixteen-week treatment period
Experimental: In a double-blind Phase 2 trial, 203 patients with psoriatic arthritis were randomized into three groups: deucravacitinib 6 mg once daily (N=70), deucravacitinib 12 mg once daily (N=67), or placebo (N=66). All subjects had active psoriatic arthritis according to the Classification Criteria for Psoriatic Arthritis (CASPAR); for active disease, these criteria required ≥3 tender joint count, ≥3 swollen joint count, and a C-reactive protein level above 3 mg/L. Other inclusion criteria included the following: presence of at least one plaque psoriasis lesion, and prior treatment failure with a non-biologic disease modifying anti-rheumatic drug, a non-steroidal anti-inflammatory drug, or a steroid. With respect to treatment history, approximately 70% of subjects had not received prior treatment with a biologic and were biologic naïve, while up to 30% of subjects had failed or had been intolerant to one TNF-inhibitor (TNF=Tumor necrosis factor, also known as TNFα). Randomization was stratified by prior TNF-inhibitor use (experienced/naïve) and body weight (<90 kg and ≥90 kg).
Clinical measures included the Psoriasis […] (PASI) score for skin psoriasis, American College of Rheumatology 20 (ACR20) response, Psoriatic Arthritis Disease Activity Score (PASDAS), Health Assessment Questionnaire-Disability Index (HAQ-DI), and Disease Activity Score 28 CRP (DAS28). To evaluate the predictive value of different protein measurements for the clinical response to deucravacitinib, baseline protein concentrations for responders and non-responders, as defined by ACR20 or PASI75 at week 16, were compared for each arm (placebo, 6 mg deucravacitinib once-daily, and 12 mg deucravacitinib once-daily).
In addition, a logistic regression model was fit, to determine whether baseline disease score (dichotomized by the median baseline score, into baseline score high and baseline score low groups) was associated with response status. The model generated an odds ratio for each dosed arm versus placebo, in baseline score high and baseline score low groups.
Boxplots for baseline protein level by response were generated with a horizontal line indicating the median protein level at baseline. For each treatment arm, a two-sample t-test was performed to test whether mean baseline serum protein level was different in responders versus non-responders. A Wilcoxon rank sum test (Mann-Whitney U test) was also performed to evaluate the difference in median serum protein level between responders and non-responders. Further, barplots of ACR20 and PASI75 response rate at week 16 for each treatment arm were generated for all subjects (protein level high and protein level low subjects, dichotomized according to median baseline level). Line plots of ACR20 and PASI75 response rate over time for each treatment arm were generated for protein level high and protein level low groups. Logistic regression models were also fit to evaluate associations between baseline protein levels and clinical outcome.
For certain analyses described herein, patients were dichotomized by median values (e.g., of the proteins listed above or other measures) into “high” and “low” groups, such that the high group had values above the median and the low group had values less than or equal to the median.
In addition, logistic regression models were fit for response measures ACR20 and PASI75, to generate the odds ratio of each of the deucravacitinib treatment arms versus placebo, in BD2-high and BD2-low groups. The following logistic regression models were used: • For ACR20 response status: ACR20 (Y/N)=treatment arm+BD2 group+treatment arm*BD2 group+TNF-inhibitor use+baseline weight (continuous). • For PASI75 response status: PASI75 (Y/N)=treatment arm+BD2 group+treatment arm*BD2 group+TNF-inhibitor use+baseline weight (continuous). […]

[1] = 6 mg QD, Above median baseline CRP level
[2] = 6 mg QD, Below median baseline CRP level
[3] = 12 mg QD, Above median baseline CRP level
[4] = 12 mg QD, Below median baseline CRP level

## [2H]C([2H])([2H])NC(=O)c1nnc(NC(=O)C2CC2)cc1Nc1cccc(-c2ncn(C)n2)c1OC [deucravacitinib, 6-(cyclopropanecarboxamido)-4-((2-methoxy-3-(1-methyl-1H-1,2,4-triazol-3-yl)phenyl)amino)-N-(methyl-d3)pyridazine-3-carboxamide]
6 mg QD vs placebo: BD2 high versus BD2 low
  Interaction Term for PASI75 response (ratio of odds ratios): 11.628
6 mg QD vs placebo: CRP high versus CRP low
  Interaction Term: treatment arm*CRP group, PASI75: 1.67
6 mg QD vs placebo: CRP-high versus CRP-low, adjusted for baseline PASI score
  Interaction Term: treatment arm*CRP group, PASI75: 1.67
6 mg QD vs placebo: IL-17A high versus IL-17A low, adjusted for baseline PASI score
  Interaction Term: treatment arm*IL-17A group, PASI75: 22.889
6 mg QD vs placebo: IL-17A high versus IL-17A low
  Interaction Term for PASI75 response (ratio of odds ratios): 22.851
6 mg QD vs placebo: baseline PASI high versus PASI low
  Interaction Term for PASI75 response (ratio of odds ratios): 5.51 and 5.514
6 mg QD, 12 mg QD, BD2-high and BD2-low groups (FIG. 9)
  PASI75 response rate over time: dose-dependent PASI75 response rate over time was observed in the BD2-high group but not in the BD2-low group
6 mg QD, 12 mg QD, CRP-high and CRP-low groups (FIG. 40)
  PASI75 response rate over time: higher response rates than the placebo arm
6 mg QD, 12 mg QD, IL-17A-high and IL-17A-low groups (FIG. 23)
  PASI75 response rate over time: dose-dependent PASI75 response over time was observed in IL-17A-high but not in IL-17A-low PsA patients
6 mg QD, 12 mg QD, IL-19-high and IL-19-low groups (FIG. 16)
  PASI75 response rate over time: dose-dependent PASI75 response over time was observed in IL-19-high but not in IL-19-low PsA patients
[1]
  Number of subjects, PASI75 Non-responder at week 16: 17
  Number of subjects, PASI75 Responder at week 16: 16
[2]
  Number of subjects, PASI75 Non-responder at week 16: 17
  Number of subjects, PASI75 Responder at week 16: 9
6 mg QD, CRP-high-PASI-high
  Number of subjects, PASI75 Non-responder: 4
  Number of subjects, PASI75 Responder: 11
6 mg QD, CRP-high-PASI-low
  Number of subjects, PASI75 Non-responder: 13
  Number of subjects, PASI75 Responder: 5
6 mg QD, CRP-low-PASI-high
  Number of subjects, PASI75 Non-responder: 7
  Number of subjects, PASI75 Responder: 5
6 mg QD, CRP-low-PASI-low
  Number of subjects, PASI75 Non-responder: 10
  Number of subjects, PASI75 Responder: 4
6 mg QD, PASI75 non-responder at week 16, above baseline PASI median 6.6
  Number of subjects: 11
6 mg QD, PASI75 non-responder at week 16, above median baseline BD2 level
  Number of subjects: 17
6 mg QD, PASI75 non-responder at week 16, above median baseline IL-17A level
  Number of subjects: 14
6 mg QD, PASI75 non-responder at week 16, above median baseline IL-19 level
  Number of subjects: 18
6 mg QD, PASI75 non-responder at week 16, below baseline PASI median 6.6
  Number of subjects: 23
6 mg QD, PASI75 non-responder at week 16, below median baseline BD2 level
  Number of subjects: 16
6 mg QD, PASI75 non-responder at week 16, below median baseline IL-17A level
  Number of subjects: 20
6 mg QD, PASI75 non-responder at week 16, below median baseline IL-19 level
  Number of subjects: 16
6 mg QD, PASI75 non-responder, BD2-high-PASI-high
  Number of subjects: 8
6 mg QD, PASI75 non-responder, BD2-high-PASI-low
  Number of subjects: 12
6 mg QD, PASI75 non-responder, BD2-low-PASI-high
  Number of subjects: 3
6 mg QD, PASI75 non-responder, BD2-low-PASI-low
  Number of subjects: 11
6 mg QD, PASI75 non-responder, IL-17A-high-PASI-high
  Number of subjects: 8
6 mg QD, PASI75 non-responder, IL-17A-high-PASI-low
  Number of subjects: 6
6 mg QD, PASI75 non-responder, IL-17A-low-PASI-high
  Number of subjects: 3
6 mg QD, PASI75 non-responder, IL-17A-low-PASI-low
  Number of subjects: 17
6 mg QD, PASI75 non-responder, IL-19-high-PASI-high
  Number of subjects: 9
6 mg QD, PASI75 non-responder, IL-19-high-PASI-low
  Number of subjects: 9
6 mg QD, PASI75 non-responder, IL-19-low-PASI-high
  Number of subjects: 2
6 mg QD, PASI75 non-responder, IL-19-low-PASI-low
  Number of subjects: 14
6 mg QD, PASI75 responder at week 16, above baseline PASI median 6.6
  Number of subjects: 16
6 mg QD, PASI75 responder at week 16, above median baseline BD2 level
  Number of subjects: 22
6 mg QD, PASI75 responder at week 16, above median baseline IL-17A level
  Number of subjects: 19
6 mg QD, PASI75 responder at week 16, above median baseline IL-19 level
  Number of subjects: 19
6 mg QD, PASI75 responder at week 16, below baseline PASI median 6.6
  Number of subjects: 9
6 mg QD, PASI75 responder at week 16, below median baseline BD2 level
  Number of subjects: 15
6 mg QD, PASI75 responder at week 16, below median baseline IL-17A level
  Number of subjects: 6
6 mg QD, PASI75 responder at week 16, below median baseline IL-19 level
  Number of subjects: 6
6 mg QD, PASI75 responder, BD2-high-PASI-high
  Number of subjects: 14
6 mg QD, PASI75 responder, BD2-high-PASI-low
  Number of subjects: 4
6 mg QD, PASI75 responder, BD2-low-PASI-high
  Number of subjects: 2
6 mg QD, PASI75 responder, BD2-low-PASI-low
  Number of subjects: 5
6 mg QD, PASI75 responder, IL-17A-high-PASI-high
  Number of subjects: 12
6 mg QD, PASI75 responder, IL-17A-high-PASI-low
  Number of subjects: 7
6 mg QD, PASI75 responder, IL-17A-low-PASI-high
  Number of subjects: 4
6 mg QD, PASI75 responder, IL-17A-low-PASI-low
  Number of subjects: 2
6 mg QD, PASI75 responder, IL-19-high-PASI-high
  Number of subjects: 13
6 mg QD, PASI75 responder, IL-19-high-PASI-low
  Number of subjects: 6
6 mg QD, PASI75 responder, IL-19-low-PASI-high
  Number of subjects: 3
6 mg QD, PASI75 responder, IL-19-low-PASI-low
  Number of subjects: 3
12 mg QD vs placebo: BD2 high versus BD2 low
  Interaction Term for PASI75 response (ratio of odds ratios): 14.233
12 mg QD vs placebo: CRP high versus CRP low
  Interaction Term: treatment arm*CRP group, PASI75: 2.63
12 mg QD vs placebo: CRP-high versus CRP-low, adjusted for baseline PASI score
  Interaction Term: treatment arm*CRP group, PASI75: 3.18
12 mg QD vs placebo: IL-17A high versus IL-17A low, adjusted for baseline PASI score
  Interaction Term: treatment arm*IL-17A group, PASI75: 13.222
12 mg QD vs placebo: IL-17A high versus IL-17A low
  Interaction Term for PASI75 response (ratio of odds ratios): 12.089
12 mg QD vs placebo: baseline PASI high versus PASI low
  Interaction Term for PASI75 response (ratio of odds ratios): 6.42
[3]
  Number of subjects, PASI75 Non-responder at week 16: 7
  Number of subjects, PASI75 Responder at week 16: 18
[4]
  Number of subjects, PASI75 Non-responder at week 16: 14
  Number of subjects, PASI75 Responder at week 16: 13
12 mg QD, CRP-high-PASI-high
  Number of subjects, PASI75 Non-responder: 4
  Number of subjects, PASI75 Responder: 10
12 mg QD, CRP-high-PASI-low
  Number of subjects, PASI75 Non-responder: 3
  Number of subjects, PASI75 Responder: 8
12 mg QD, CRP-low-PASI-high
  Number of subjects, PASI75 Non-responder: 2
  Number of subjects, PASI75 Responder: 10
12 mg QD, CRP-low-PASI-low
  Number of subjects, PASI75 Non-responder: 12
  Number of subjects, PASI75 Responder: 3
12 mg QD, PASI75 non-responder at week 16, above baseline PASI median 6.6
  Number of subjects: 6
12 mg QD, PASI75 non-responder at week 16, above median baseline BD2 level
  Number of subjects: 11
12 mg QD, PASI75 non-responder at week 16, above median baseline IL-17A level
  Number of subjects: 8
12 mg QD, PASI75 non-responder at week 16, above median baseline IL-19 level
  Number of subjects: 6
12 mg QD, PASI75 non-responder at week 16, below baseline PASI median 6.6
  Number of subjects: 15
12 mg QD, PASI75 non-responder at week 16, below median baseline BD2 level
  Number of subjects: 13
12 mg QD, PASI75 non-responder at week 16, below median baseline IL-17A level
  Number of subjects: 13
12 mg QD, PASI75 non-responder at week 16, below median baseline IL-19 level
  Number of subjects: 14
12 mg QD, PASI75 non-responder, BD2-high-PASI-high
  Number of subjects: 5
12 mg QD, PASI75 non-responder, BD2-high-PASI-low
  Number of subjects: 5
12 mg QD, PASI75 non-responder, BD2-low-PASI-high
  Number of subjects: 1
12 mg QD, PASI75 non-responder, BD2-low-PASI-low
  Number of subjects: 10
12 mg QD, PASI75 non-responder, IL-17A-high-PASI-high
  Number of subjects: 5
12 mg QD, PASI75 non-responder, IL-17A-high-PASI-low
  Number of subjects: 3
12 mg QD, PASI75 non-responder, IL-17A-low-PASI-high
  Number of subjects: 1
12 mg QD, PASI75 non-responder, IL-17A-low-PASI-low
  Number of subjects: 12
12 mg QD, PASI75 non-responder, IL-19-high-PASI-high
  Number of subjects: 3
12 mg QD, PASI75 non-responder, IL-19-high-PASI-low
  Number of subjects: 3
12 mg QD, PASI75 non-responder, IL-19-low-PASI-high
  Number of subjects: 2
12 mg QD, PASI75 non-responder, IL-19-low-PASI-low
  Number of subjects: 12
12 mg QD, PASI75 responder at week 16, above baseline PASI median 6.6
  Number of subjects: 20
12 mg QD, PASI75 responder at week 16, above median baseline BD2 level
  Number of subjects: 23
12 mg QD, PASI75 responder at week 16, above median baseline IL-17A level
  Number of subjects: 18
